Experimental findings from patent US20150329558A1, “FUSED HETEROCYCLIC COMPOUNDS AS ION CHANNEL MODULATORS” (Gilead Sciences, Inc., priority 2011, published 2015) are described below.

For one series, the target named is T1, hNav1.1 (Homo sapiens, UniProt P35498).
T1 construct: expressed in transfected cells; host or cells: HEK293, transient transfection (α1:β1:β2 = 10:1:1)
The experiment in a line: Nav1.1 use-dependent block, whole-cell voltage clamp. The format is cell-based. Particulars: use-dependent block 10 Hz, read-out: NAv1.1*-CHAN TEST-UDB-10 HZ-.

For another series, the target named is T2, Human Nav1.2 (Homo sapiens, UniProt Q99250).
T2 construct: expressed in transfected cells
T2 sequence (Q99250 whole entry): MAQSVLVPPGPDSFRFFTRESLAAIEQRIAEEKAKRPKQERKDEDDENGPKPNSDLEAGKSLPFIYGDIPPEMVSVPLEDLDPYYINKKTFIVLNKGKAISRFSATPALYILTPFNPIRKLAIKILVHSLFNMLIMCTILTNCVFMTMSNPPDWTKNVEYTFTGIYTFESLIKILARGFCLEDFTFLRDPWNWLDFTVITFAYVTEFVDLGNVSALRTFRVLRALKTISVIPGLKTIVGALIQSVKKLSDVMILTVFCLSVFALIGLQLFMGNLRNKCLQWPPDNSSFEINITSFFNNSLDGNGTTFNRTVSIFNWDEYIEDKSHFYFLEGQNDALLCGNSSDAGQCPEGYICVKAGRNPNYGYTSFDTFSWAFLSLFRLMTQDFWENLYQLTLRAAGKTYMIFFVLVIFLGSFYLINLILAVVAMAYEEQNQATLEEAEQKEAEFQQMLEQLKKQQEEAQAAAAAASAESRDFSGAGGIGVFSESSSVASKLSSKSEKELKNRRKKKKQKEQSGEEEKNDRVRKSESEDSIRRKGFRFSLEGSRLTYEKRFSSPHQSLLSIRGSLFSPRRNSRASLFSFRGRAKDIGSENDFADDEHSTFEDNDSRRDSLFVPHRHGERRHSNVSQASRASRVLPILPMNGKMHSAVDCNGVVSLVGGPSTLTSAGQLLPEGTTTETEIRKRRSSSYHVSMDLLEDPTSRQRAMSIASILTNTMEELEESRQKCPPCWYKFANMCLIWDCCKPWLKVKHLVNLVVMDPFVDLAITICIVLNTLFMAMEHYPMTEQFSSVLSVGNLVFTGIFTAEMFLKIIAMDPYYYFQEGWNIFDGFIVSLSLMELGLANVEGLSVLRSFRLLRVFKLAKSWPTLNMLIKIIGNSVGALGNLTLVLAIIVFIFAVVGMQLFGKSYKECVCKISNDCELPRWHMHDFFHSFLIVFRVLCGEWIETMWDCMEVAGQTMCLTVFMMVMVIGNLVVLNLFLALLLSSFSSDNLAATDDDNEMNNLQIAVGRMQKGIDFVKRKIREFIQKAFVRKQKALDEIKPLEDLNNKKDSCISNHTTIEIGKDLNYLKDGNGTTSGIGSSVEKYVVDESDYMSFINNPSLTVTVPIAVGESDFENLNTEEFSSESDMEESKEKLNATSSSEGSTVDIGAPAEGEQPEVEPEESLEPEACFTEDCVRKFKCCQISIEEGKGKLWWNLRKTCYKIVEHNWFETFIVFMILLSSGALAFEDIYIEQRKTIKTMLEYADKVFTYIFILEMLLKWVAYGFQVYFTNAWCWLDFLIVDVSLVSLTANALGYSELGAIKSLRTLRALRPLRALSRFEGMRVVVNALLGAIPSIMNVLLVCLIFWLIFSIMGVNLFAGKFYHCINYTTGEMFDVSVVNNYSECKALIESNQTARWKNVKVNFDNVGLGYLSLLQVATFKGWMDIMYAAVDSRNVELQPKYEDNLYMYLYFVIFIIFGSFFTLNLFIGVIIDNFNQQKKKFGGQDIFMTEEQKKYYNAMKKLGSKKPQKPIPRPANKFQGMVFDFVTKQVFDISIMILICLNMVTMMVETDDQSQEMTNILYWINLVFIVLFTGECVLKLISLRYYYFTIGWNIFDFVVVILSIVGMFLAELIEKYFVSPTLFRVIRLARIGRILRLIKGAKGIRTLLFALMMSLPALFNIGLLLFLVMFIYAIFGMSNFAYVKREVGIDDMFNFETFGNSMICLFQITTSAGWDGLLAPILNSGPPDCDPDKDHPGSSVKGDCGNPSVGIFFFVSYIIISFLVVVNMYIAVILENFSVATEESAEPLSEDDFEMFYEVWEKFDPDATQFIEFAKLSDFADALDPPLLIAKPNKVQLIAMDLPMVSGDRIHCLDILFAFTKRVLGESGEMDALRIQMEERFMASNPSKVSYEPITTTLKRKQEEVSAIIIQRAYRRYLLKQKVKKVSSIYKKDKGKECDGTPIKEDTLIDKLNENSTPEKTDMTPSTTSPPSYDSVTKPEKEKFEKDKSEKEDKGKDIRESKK
As to the kind of experiment: Nav1.2 use-dependent block, whole-cell voltage clamp. The class given is cell-based. Particulars: use-dependent block 10 Hz, read-out: NAv1.2*-CHAN TEST-UDB-10 HZ-. From the text: Wild-type (WT) cDNA stably transfected in Chinese hamster ovary (CHO) cells is used to record INa. Unless otherwise noted, all reagents are purchased from Sigma-Aldrich (St Louis, Mo., U.S.A.).
Whole-cell voltage-clamp recordings are used to measure the biophysical properties of WT. Briefly, the pipette solution consists of (in mM) 110 CsF, 10 NaF, 20 CsCl, 2 EGTA, 10 HEPES, with a pH of 7.35 and osmolarity of 300 mOsmol/kg. The bath (control) solution contains in (mM): 145 NaCl, 4 KCl, 1.8 CaCl2, 1 MgCl2, 10 dextrose, 10 HEPES, with a pH of 7.35 and osmolarity of 310 mOsmol/kg. Cells are allowed to stabilize for 10 min after establishment of the whole-cell configuration before current is measured. Series resistance is compensated 90% to assure that the command potential is reached within microseconds with a voltage error <2 mV. Leak currents are subtracted by using an online P/4 procedure and all currents are low-pass Bessel filtered at 5 kHz and digitized at 50 kHz.
Tonic block of peak current is measured using a step to −10 mV (20 ms) from a holding potential of −120 mV (0.2 Hz). Use-dependent block of peak current is measured during pulse number 300 of a pulse train (−10 mV, 5 ms, 300 pulses, 10 Hz or 25 Hz) from a holding potential of −120 mV. Two sequential pulse train stimulations are averaged to obtain mean current traces for each recording condition, which are then used for offline subtraction and analysis.
For use-dependent studies, cells are stimulated with depolarizing pulse trains (−10 mV, 5 ms, 300 pulses, 10 and 25 Hz) from a holding potential of −120 mV. Currents are then normalized to the peak current recorded in response to the first pulse in each frequency train. For tonic block studies, peak current is evaluated in response to a 20 ms depolarization to −10 mV (0.2 Hz). Data analysis is performed using Clampfit 9.2 (Axon Instruments, Union City, Calif., U.S.A), Excel 2002 (Microsoft, Seattle, Wash., U.S.A.), and OriginPro 7.0 (OriginLab, Northampton, Mass., U.S.A) software. Results are presented as mean±SEM.
A stock solution of 10 mM compound of Formula I is prepared in 0.1 M HCl or DMSO. A fresh dilution of the compound of Formula I in the bath solution is prepared every experimental day and the pH is readjusted to 7.35 as necessary. The final DMSO concentration was kept at 0.1% in all solutions. Direct application of the perfusion solution to the clamped cell is achieved using the Perfusion Pencil system (Automate, Berkeley, Calif.). Direct cell perfusion is driven by gravity at a flow rate of 350 μL/min using a 250 micron tip. This system sequesters the clamped cell within a perfusion stream and enables complete solution exchange within 1 second. The clamped cell is perfused continuously starting immediately after establishing the whole-cell configuration. Control currents are measured during control solution perfusion.
Solutions are perfused for three minutes prior to current recordings to allow equilibrium (tonic) drug block. Tonic block of peak currents is measured from this steady-state condition. Three sequential current traces are averaged to obtain a mean current for each recording. The mean current traces are utilized for offline analysis. Use-dependent block of peak current is measured during pulse number 300 of the pulse train, (−10 mV, 5 ms, 300 pulses, 10 Hz) from a holding potential of −120 mV. Two sequential pulse train stimulations are averaged to obtain mean current traces for each recording condition, which are then used for offline subtraction and analysis. Where appropriate, concentration inhibition curves are fit with the Hill equation: I/Imax=1/[1+10̂(log IC50−I)*k], where IC50 is the concentration that produces half inhibition and k is the Hill slope factor.

Series [1] is described as follows: Microsomal stability assay, dog. The format is in vitro ADME. Particulars: metabolic stability, dog liver microsomes 0.5 mg/mL, substrate 3 uM. An outline of the steps:
(§1)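 Liver microsomes at 0.5 mg/mL protein in 100 mM KPO4 buffer, incubated with 3 uM compound and NADPH-regenerating system, run in duplicate. Samples taken at 2, 12, 25, 45 and 65 min and quenched in MeOH/ACN/water before analysis.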
For orientation: Liver microsomes are a subcellular fraction often used to study metabolism.

The nature of series [2]: Microsomal stability assay, rat. The format is in vitro ADME. Particulars: metabolic stability, rat liver microsomes 0.5 mg/mL, substrate 3 uM. An outline of the steps: as §1

As for `Cc1noc(Cn2nnc3ccc(-c4ccc(OC(F)(F)F)cc4)cc3c2=O)n1` [II-3, 3-((3-methyl-1,2,4-oxadiazol-5-yl)methyl)-6-(4-(trifluoromethoxy)phenyl)benzo[d][1,2,3]triazin-4(3H)-one], the inhibition at 1 µM at hNav1.1 is -6%; on Human Nav1.2, -3.2%. In series [1], this compound registered an MS Dog THalf of 303 min. Further, the MS Rat THalf in series [2] came to 249 min.
`O=c1c2cc(-c3ccc(OC(F)(F)F)cc3)ccc2nnn1Cc1noc(C2CC2)n1` [II-14, 3-((5-cyclopropyl-1,2,4-oxadiazol-3-yl)methyl)-6-(4-(trifluoromethoxy)phenyl)benzo[d][1,2,3]triazin-4(3H)-one]: the inhibition at 1 µM was 19.5% on hNav1.1 and -0.7% on Human Nav1.2. Further, the MS Dog THalf in series [1] was 284 min. Further, the MS Rat THalf in series [2] worked out at 375 min.
On to `O=c1c2cc(-c3ccc(OC(F)(F)F)cc3)ccc2nnn1CCc1ccncn1` [II-17, 3-(2-(pyrimidin-4-yl)ethyl)-6-(4-(trifluoromethoxy)phenyl)benzo[d][1,2,3]triazin-4(3H)-one], for which the MS Dog THalf in series [1] turned out to be 50 min. This compound also registered an MS Rat THalf in series [2] of 24 min.
Compound `O=c1c2cc(-c3ccc(OC(F)(F)F)cc3)ccc2nnn1CCc1ncccn1` [II-18, 3-(2-(pyrimidin-2-yl)ethyl)-6-(4-(trifluoromethoxy)phenyl)benzo[d][1,2,3]triazin-4(3H)-one] displayed an MS Dog THalf in series [1] of 74 min. Also, the MS Rat THalf in series [2] came out at 49 min.
For the compound `O=c1c2cc(-c3ccc(OC(F)(F)F)cc3)ccc2nnn1CCOc1ncccn1` [II-32, 3-(2-(pyrimidin-2-yloxy)ethyl)-6-(4-(trifluoromethoxy)phenyl)benzo[d][1,2,3]triazin-4(3H)-one], the inhibition at 1 µM on hNav1.1 amounted to 21%; on Human Nav1.2, 16.9%. This compound yielded an MS Dog THalf in series [1] of 36 min. In addition, in series [2], the MS Rat THalf is 237 min.
In the same order, the values of `N#Cc1ccnc(OCCn2nnc3ccc(-c4ccc(OC(F)(F)F)cc4)cc3c2=O)n1` [II-36, 2-(2-(4-oxo-6-(4-(trifluoromethoxy)phenyl)benzo[d][1,2,3]triazin-3(4H)-yl)ethoxy)pyrimidine-4-carbonitrile] are 7.9%, 10.9%, 124 min and 108 min.
In the same order, the values of `O=c1c2cc(-c3ccc(OC(F)(F)F)cc3)ccc2nnn1C1CCNCC1` [II-38, 3-(piperidin-4-yl)-6-(4-(trifluoromethoxy)phenyl)benzo[d][1,2,3]triazin-4(3H)-one] are -1%, 8%, 68 min and 298 min.
Compound `O=c1c2cc(-c3ccc(OC(F)(F)F)cc3)ccc2nnn1CC1(CN2CCOCC2)CC1` [II-40, 3-((1-(morpholinomethyl)cyclopropyl)methyl)-6-(4-(trifluoromethoxy)phenyl)benzo[d][1,2,3]triazin-4(3H)-one] yielded an MS Dog THalf in series [1] of 2 min. For the same compound, the MS Rat THalf in series [2] amounted to 2 min.
For the compound `O=c1c2cc(-c3ccc(OC(F)(F)F)cc3)ccc2nnn1Cc1noc(-c2ccccn2)n1` [II-54, 3-((5-(pyridin-2-yl)-1,2,4-oxadiazol-3-yl)methyl)-6-(4-(trifluoromethoxy)phenyl)benzo[d][1,2,3]triazin-4(3H)-one], in series [1], the MS Dog THalf is 28 min. In addition, in series [2], the MS Rat THalf turned out to be 176 min.
In the same order, the values of `O=c1c2cc(-c3ccc(OC(F)(F)F)cc3)ccc2nnn1Cc1nnc(C2CC2)o1` [II-67, 3-((5-cyclopropyl-1,3,4-oxadiazol-2-yl)methyl)-6-(4-(trifluoromethoxy)phenyl)benzo[d][1,2,3]triazin-4(3H)-one] are 270 min and more than 395 min.
Regarding `Cc1ncc(Cn2nnc3ccc(-c4ccc(OC(F)(F)F)cc4)cc3c2=O)o1` [II-95, 3-((2-methyloxazol-5-yl)methyl)-6-(4-(trifluoromethoxy)phenyl)benzo[d][1,2,3]triazin-4(3H)-one], the inhibition at 1 µM at hNav1.1 is -0.5%; on Human Nav1.2 it was -8.2%. Besides, the MS Dog THalf in series [1] was 169 min. Moreover, in series [2], the MS Rat THalf was found to be 121 min.
As to `O=c1c2cc(-c3ccc(OC(F)(F)F)cc3)ccc2cnn1Cc1ncccn1` [III-5, 2-(pyrimidin-2-ylmethyl)-7-(4-(trifluoromethoxy)phenyl)phthalazin-1(2H)-one], the inhibition at 1 µM is 9.3% on hNav1.1 and 5.5% at Human Nav1.2. This compound also returned an MS Dog THalf in series [1] of 66 min. In series [2], the MS Rat THalf was 56 min.
In the same order, the values of `O=c1c2cc(-c3ccc(OC(F)(F)F)cc3)ccc2cnn1CCn1cccn1` [III-9, 2-(2-(1H-pyrazol-1-yl)ethyl)-7-(4-(trifluoromethoxy)phenyl)phthalazin-1(2H)-one] are 7.1%, 3.5%, 27 min and 81 min.
In the same order, the values of `COc1cc(OC)nc(Cn2ncc3ccc(-c4ccc(OC(F)(F)F)cc4)cc3c2=O)n1` [III-19, 2-((4,6-dimethoxypyrimidin-2-yl)methyl)-7-(4-(trifluoromethoxy)phenyl)phthalazin-1 (2H)-one] are 19.3%, -6%, 129 min and 72 min.
In the same order, the values of `O=c1c2cc(-c3ccc(OC(F)(F)F)cc3)ccc2cnn1CCOc1ncccn1` [III-28, 2-(2-(pyrimidin-2-yloxy)ethyl)-7-(4-(trifluoromethoxy)phenyl)phthalazin-1 (2H)-one] are 40.5%, 28.8%, 51 min and 103 min.
As for `Cc1noc(Cn2cnc3ccc(-c4ccc(OC(F)(F)F)cc4)cc3c2=O)n1` [IV-6, 3-((3-methyl-1,2,4-oxadiazol-5-yl)methyl)-6-(4-(trifluoromethoxy)phenyl)quinazolin-4(3H)-one], the inhibition at 1 µM at hNav1.1 is 3.1%; on Human Nav1.2, 7.1%. This compound had an MS Dog THalf in series [1] of 158 min. The compound also had an MS Rat THalf in series [2] of 190 min.
Regarding `Cc1nc(Cn2cnc3ccc(-c4ccc(OC(F)(F)F)cc4)cc3c2=O)no1` [IV-9, 3-((5-methyl-1,2,4-oxadiazol-3-yl)methyl)-6-(4-(trifluoromethoxy)phenyl)quinazolin-4(3H)-one], the inhibition at 1 µM was -6.5% on hNav1.1 and 8% at Human Nav1.2. Besides, the MS Dog THalf in series [1] was 356 min. In series [2], the MS Rat THalf came to 243 min.
In the same order, the values of `O=C1c2cc(-c3ccc(OC(F)(F)F)cc3)ccc2CCN1Cc1ncccn1` [IX-1, 2-(pyrimidin-2-ylmethyl)-7-(4-(trifluoromethoxy)phenyl)-3,4-dihydroisoquinolin-1(2H)-one] are -5.9%, 3.8%, 157 min and 150 min.
Turning to `O=C1c2cc(-c3ccc(OC(F)(F)F)cc3)ccc2OCN1Cc1ncccn1` [VIII-20, 3-(pyrimidin-2-ylmethyl)-6-(4-(trifluoromethoxy)phenyl)-2H-benzo[e][1,3]oxazin-4(3H)-one], the inhibition at 1 µM came to 11% on hNav1.1 and 17.6% at Human Nav1.2.
